In brackets after ≈: the same amount, converted by molar mass.
tested on: Vero; test: Toxicity against Vero cells at 62.5 ug/ml after 72 hrs by MTT assay; assay type: cell-based; settings: chlorocebus sabaeus

SMILES | Activity
O=S(=O)(c1ccc(NC(c2ccccc2)n2nc(COc3cccc4ccccc34)oc2=S)cc1)c1ccc(NC(c2ccccc2)n2nc(COc3cccc4ccccc34)oc2=S)cc1 (centres undefined) | Non-toxic
O=S(=O)(c1ccc(NC(c2ccccc2)n2nc(Cc3ccccc3)oc2=S)cc1)c1ccc(NC(c2ccccc2)n2nc(Cc3ccccc3)oc2=S)cc1 (centres undefined) | Non-toxic
O=S(=O)(c1ccc(NC(Cc2ccco2)n2nc(COc3ccc4ccccc4c3)oc2=S)cc1)c1ccc(NC(Cc2ccco2)n2nc(COc3ccc4ccccc4c3)oc2=S)cc1 (centres undefined) | Non-toxic
O=S(=O)(c1ccc(NC(Cc2ccco2)n2nc(COc3ccccc3)oc2=S)cc1)c1ccc(NC(Cc2ccco2)n2nc(COc3ccccc3)oc2=S)cc1 (centres undefined) | Non-toxic
O=[N+]([O-])c1ccc(-c2nn(C(Nc3ccc(S(=O)(=O)c4ccc(NC(c5ccccc5)n5nc(-c6ccc([N+](=O)[O-])cc6)oc5=S)cc4)cc3)c3ccccc3)c(=S)o2)cc1 (centres undefined) | Non-toxic
O=S(=O)(c1ccc(NC(c2ccccc2)n2nc(-c3ccc(Nc4ccccc4)cc3)oc2=S)cc1)c1ccc(NC(c2ccccc2)n2nc(-c3ccc(Nc4ccccc4)cc3)oc2=S)cc1 (centres undefined) | Non-toxic
O=[N+]([O-])c1ccc(-c2nn(C(Cc3ccco3)Nc3ccc(S(=O)(=O)c4ccc(NC(Cc5ccco5)n5nc(-c6ccc([N+](=O)[O-])cc6)oc5=S)cc4)cc3)c(=S)o2)cc1 (centres undefined) | Non-toxic
O=S(=O)(c1ccc(NC(Cc2ccco2)n2nc(-c3ccc(Nc4ccccc4)cc3)oc2=S)cc1)c1ccc(NC(Cc2ccco2)n2nc(-c3ccc(Nc4ccccc4)cc3)oc2=S)cc1 (centres undefined) | Non-toxic
O=S(=O)(c1ccc(NC(Cc2ccco2)n2nc(COc3cccc4ccccc34)oc2=S)cc1)c1ccc(NC(Cc2ccco2)n2nc(COc3cccc4ccccc34)oc2=S)cc1 (centres undefined) | Non-toxic
O=S(=O)(c1ccc(NC(Cc2ccco2)n2nc(Cc3ccccc3)oc2=S)cc1)c1ccc(NC(Cc2ccco2)n2nc(Cc3ccccc3)oc2=S)cc1 (centres undefined) | Non-toxic
O=S(=O)(c1ccc(NC(c2ccccc2)n2nc(-c3ccccc3)oc2=S)cc1)c1ccc(NC(c2ccccc2)n2nc(-c3ccccc3)oc2=S)cc1 (centres undefined) | Non-toxic
O=S(=O)(c1ccc(NC(c2ccccc2)n2nc(COc3ccccc3)oc2=S)cc1)c1ccc(NC(c2ccccc2)n2nc(COc3ccccc3)oc2=S)cc1 (centres undefined) | Non-toxic
O=S(=O)(c1ccc(NC(c2ccccc2)n2nc(COc3ccc4ccccc4c3)oc2=S)cc1)c1ccc(NC(c2ccccc2)n2nc(COc3ccc4ccccc4c3)oc2=S)cc1 (centres undefined) | Non-toxic
O=S(=O)(c1ccc(NC(Cc2ccco2)n2nc(-c3ccccc3)oc2=S)cc1)c1ccc(NC(Cc2ccco2)n2nc(-c3ccccc3)oc2=S)cc1 (centres undefined) | Non-toxic

tested on: Mycobacterium tuberculosis; test: Antimycobacterial activity against Mycobacterium tuberculosis H37Rv by agar dilution method using double dilution technique; assay type: functional; settings: not given

SMILES | MIC
O=S(=O)(c1ccc(NC(c2ccccc2)n2nc(COc3cccc4ccccc34)oc2=S)cc1)c1ccc(NC(c2ccccc2)n2nc(COc3cccc4ccccc34)oc2=S)cc1 (centres undefined) | 0.96 µM (≈ 0.903 µg/mL)
O=S(=O)(c1ccc(NC(c2ccccc2)n2nc(Cc3ccccc3)oc2=S)cc1)c1ccc(NC(c2ccccc2)n2nc(Cc3ccccc3)oc2=S)cc1 (centres undefined) | 1.29 µM (≈ 1.04 µg/mL)
O=S(=O)(c1ccc(NC(Cc2ccco2)n2nc(COc3ccc4ccccc4c3)oc2=S)cc1)c1ccc(NC(Cc2ccco2)n2nc(COc3ccc4ccccc4c3)oc2=S)cc1 (centres undefined) | 0.1 µM (≈ 0.0949 µg/mL)
O=S(=O)(c1ccc(NC(Cc2ccco2)n2nc(COc3ccccc3)oc2=S)cc1)c1ccc(NC(Cc2ccco2)n2nc(COc3ccccc3)oc2=S)cc1 (centres undefined) | 0.14 µM (≈ 0.119 µg/mL)
O=[N+]([O-])c1ccc(-c2nn(C(Nc3ccc(S(=O)(=O)c4ccc(NC(c5ccccc5)n5nc(-c6ccc([N+](=O)[O-])cc6)oc5=S)cc4)cc3)c3ccccc3)c(=S)o2)cc1 (centres undefined) | 1.94 µM (≈ 1.69 µg/mL)
O=S(=O)(c1ccc(NC(c2ccccc2)n2nc(-c3ccc(Nc4ccccc4)cc3)oc2=S)cc1)c1ccc(NC(c2ccccc2)n2nc(-c3ccc(Nc4ccccc4)cc3)oc2=S)cc1 (centres undefined) | 1.65 µM (≈ 1.59 µg/mL)
O=[N+]([O-])c1ccc(-c2nn(C(Cc3ccco3)Nc3ccc(S(=O)(=O)c4ccc(NC(Cc5ccco5)n5nc(-c6ccc([N+](=O)[O-])cc6)oc5=S)cc4)cc3)c(=S)o2)cc1 (centres undefined) | 0.42 µM (≈ 0.369 µg/mL)
O=S(=O)(c1ccc(NC(Cc2ccco2)n2nc(-c3ccc(Nc4ccccc4)cc3)oc2=S)cc1)c1ccc(NC(Cc2ccco2)n2nc(-c3ccc(Nc4ccccc4)cc3)oc2=S)cc1 (centres undefined) | 0.66 µM (≈ 0.641 µg/mL)
O=S(=O)(c1ccc(NC(Cc2ccco2)n2nc(COc3cccc4ccccc34)oc2=S)cc1)c1ccc(NC(Cc2ccco2)n2nc(COc3cccc4ccccc34)oc2=S)cc1 (centres undefined) | 0.72 µM (≈ 0.683 µg/mL)
O=S(=O)(c1ccc(NC(Cc2ccco2)n2nc(Cc3ccccc3)oc2=S)cc1)c1ccc(NC(Cc2ccco2)n2nc(Cc3ccccc3)oc2=S)cc1 (centres undefined) | 0.24 µM (≈ 0.196 µg/mL)
O=S(=O)(c1ccc(NC(c2ccccc2)n2nc(-c3ccccc3)oc2=S)cc1)c1ccc(NC(c2ccccc2)n2nc(-c3ccccc3)oc2=S)cc1 (centres undefined) | 1.72 µM (≈ 1.34 µg/mL)
O=S(=O)(c1ccc(NC(c2ccccc2)n2nc(COc3ccccc3)oc2=S)cc1)c1ccc(NC(c2ccccc2)n2nc(COc3ccccc3)oc2=S)cc1 (centres undefined) | 0.98 µM (≈ 0.824 µg/mL)
O=S(=O)(c1ccc(NC(c2ccccc2)n2nc(COc3ccc4ccccc4c3)oc2=S)cc1)c1ccc(NC(c2ccccc2)n2nc(COc3ccc4ccccc4c3)oc2=S)cc1 (centres undefined) | 0.42 µM (≈ 0.395 µg/mL)
O=S(=O)(c1ccc(NC(Cc2ccco2)n2nc(-c3ccccc3)oc2=S)cc1)c1ccc(NC(Cc2ccco2)n2nc(-c3ccccc3)oc2=S)cc1 (centres undefined) | 0.94 µM (≈ 0.742 µg/mL)
NNC(=O)c1ccncc1 [ISONIAZID] | 0.73 µM (≈ 0.1 µg/mL)

Reference: ChEMBL document CHEMBL1148026, “Oxadiazole mannich bases: synthesis and antimycobacterial activity” (Bioorg Med Chem Lett, 2007)
